From US7713965B2, “7-substituted 3-carboxy-oxadiazino-quinolone derivatives, their preparation and their application as anti-bacterials” (Vetoquinol SA, priority 2008, dated 2010)
Values after ≈ are worked out from the molar mass of the structure shown.

Legend:
[1] = test system: Streptococcus uberis; test: MIC determination by microdilution in liquid medium, Str ube; format: cell-based
[2] = test system: Pseudomonas aeruginosa (s = susceptible); test: MIC determination by microdilution in liquid medium, Pse aer s; format: cell-based; conditions: susceptible strain
[3] = test system: M. bovirhinis; test: MIC determination by microdilution in liquid medium, M. bovirhinis; format: cell-based; conditions: Mycoplasma
[4] = test system: Mycoplasma bovis; test: MIC determination by microdilution in liquid medium, Myc bov; format: cell-based; conditions: Mycoplasmopsis bovis
[5] = test system: Mannheimia haemolytica (r = resistant); test: MIC determination by microdilution in liquid medium, Man hae r; format: cell-based; conditions: resistant strain
[6] = test system: Pseudomonas aeruginosa (r = resistant); test: MIC determination by microdilution in liquid medium, Pse aer r; format: cell-based; conditions: read-out: MIC Pse aer r
[7] = test system: Mannheimia haemolytica (s = susceptible); test: MIC determination by microdilution in liquid medium, Man hae s; format: cell-based; conditions: susceptible strain
[8] = test system: E. faecalis ATCC 29212; test: MIC determination by microdilution in liquid medium, E. faecalis ATCC 29212; format: cell-based; conditions: Enterococcus faecalis, ATCC29212, read-out: MIC E. fae-calis ATCC 29212
[9] = test system: Staphylococcus aureus (r = resistant); test: MIC determination by microdilution in liquid medium, Sta aur r; format: cell-based; conditions: read-out: MIC Sta aur r
[10] = test system: Staphylococcus aureus (s = susceptible); test: MIC determination by microdilution in liquid medium, Sta aur s; format: cell-based; conditions: susceptible strain
[11] = test system: E. coli ATCC 25922; test: MIC determination by microdilution in liquid medium, E. coli ATCC 25922; format: cell-based; conditions: Escherichia coli, ATCC25922
[12] = test system: Escherichia coli; test: MIC determination by microdilution in liquid medium, E coli; format: cell-based
[13] = test system: Bordetella bronchiseptica; test: MIC determination by microdilution in liquid medium, Bor bron; format: cell-based
[14] = test system: Clostridium perfringens; test: microbe, parasite or virus in culture; format: cell-based; conditions: read-out: MIC Clo per

Structure (SMILES)	MIC [1]	MIC [2]	MIC [3]	MIC [4]	MIC [5]	MIC [6]	MIC [7]	MIC [8]	MIC [9]	MIC [10]	MIC [11]	MIC [12]	MIC [13]	MIC [14]	melting point
CN1COc2c(N3CCC(NC(=O)C(F)(F)F)C3)c(F)cc3c(=O)c(C(=O)O)cn1c23 (stereo not drawn) [Example 27, 8-Fluoro-3-methyl-6-oxo-9-[3-(2,2,2-trifluoro-acetylamino)-pyrrolidin-1-yl]-2,3-dihydro-6H-1-oxa-3,3a-diaza-phenalene-5-carboxylic acid]	0.25 µg/mL (≈ 0.563 µM)	0.06 µg/mL (≈ 0.135 µM)	1 µg/mL (≈ 2.25 µM)	1 µg/mL (≈ 2.25 µM)	4 µg/mL (≈ 9 µM)	2 µg/mL (≈ 4.5 µM)	0.008 µg/mL (≈ 0.018 µM)	2 µg/mL (≈ 4.5 µM)	8 µg/mL (≈ 18 µM)	0.12 µg/mL (≈ 0.27 µM)	0.03 µg/mL (≈ 0.0675 µM)	0.03 µg/mL (≈ 0.0675 µM)	2 µg/mL (≈ 4.5 µM)	0.25 µg/mL (≈ 0.563 µM)	
CN1COc2c(N3C[C@H](N)C(C)(C)C3)c(F)cc3c(=O)c(C(=O)O)cn1c23 [Example 35, 9-((R)-4-Amino-3,3-dimethyl-pyrrolidin-1-yl)-8-fluoro-3-methyl-6-oxo-2,3-dihydro-6H-1-oxa-3,3a-diaza-phenalene-5-carboxylic acid]	0.12 µg/mL (≈ 0.319 µM)	0.5 µg/mL (≈ 1.33 µM)		0.5 µg/mL (≈ 1.33 µM)	8 µg/mL (≈ 21.3 µM)	8 µg/mL (≈ 21.3 µM)	0.06 µg/mL (≈ 0.159 µM)	0.25 µg/mL (≈ 0.664 µM)	2 µg/mL (≈ 5.31 µM)	0.06 µg/mL (≈ 0.159 µM)	0.03 µg/mL (≈ 0.0797 µM)	0.06 µg/mL (≈ 0.159 µM)	1 µg/mL (≈ 2.66 µM)	0.12 µg/mL (≈ 0.319 µM)	
CN1COc2c(N3CCC(C(O)c4nccs4)C3)c(F)cc3c(=O)c(C(=O)O)cn1c23 (stereo not drawn) [Example 38, 8-Fluoro-9-[3-(hydroxy-thiazol-2-yl-methyl)-pyrrolidin-1-yl]-3-methyl-6-oxo-2,3-dihydro-6H-1-oxa-3,3a-diaza-phenalene-5-carboxylic acid]	< 0.03 µg/mL	4 µg/mL (≈ 8.96 µM)	0.25 µg/mL (≈ 0.56 µM)	0.12 µg/mL (≈ 0.269 µM)	16 µg/mL (≈ 35.8 µM)	32 µg/mL (≈ 71.7 µM)	0.03 µg/mL (≈ 0.0672 µM)	0.06 µg/mL (≈ 0.134 µM)	2 µg/mL (≈ 4.48 µM)	0.06 µg/mL (≈ 0.134 µM)	0.12 µg/mL (≈ 0.269 µM)	0.12 µg/mL (≈ 0.269 µM)	1 µg/mL (≈ 2.24 µM)	< 0.03 µg/mL	
CN1COc2c(N3CCC(C(N)c4nccs4)C3)c(F)cc3c(=O)c(C(=O)O)cn1c23 (stereo not drawn) [Example 39, 9-[3-(Amino-thiazol-2-yl-methyl)-pyrrolidin-1-yl]-8-fluoro-3-methyl-6-oxo-2,3-dihydro-6H-1-oxa-3,3a-diaza-phenalene-5-carboxylic acid]	0.12 µg/mL (≈ 0.269 µM)	2 µg/mL (≈ 4.49 µM)	0.06 µg/mL (≈ 0.135 µM)	0.12 µg/mL (≈ 0.269 µM)	16 µg/mL (≈ 35.9 µM)	16 µg/mL (≈ 35.9 µM)	0.03 µg/mL (≈ 0.0673 µM)	0.12 µg/mL (≈ 0.269 µM)	2 µg/mL (≈ 4.49 µM)	≤ 0.03 µg/mL	0.03 to 0.12 µg/mL (≈ 0.0673 to 0.269 µM)	0.25 µg/mL (≈ 0.561 µM)	0.5 µg/mL (≈ 1.12 µM)	≤ 0.03 µg/mL	
CN1COc2c(N3CC[C@H](NC(=O)C(F)(F)F)C3)c(F)cc3c(=O)c(C(=O)O)cn1c23 [Example 28, 8-Fluoro-3-methyl-6-oxo-9-[(S)-3-(2,2,2-trifluoro-acetylamino)-pyrrolidin-1-yl]-2,3-dihydro-6H-1-oxa-3,3a-diaza-phenalene-5-carboxylic acid]	0.25 µg/mL (≈ 0.563 µM)	0.06 µg/mL (≈ 0.135 µM)		1 µg/mL (≈ 2.25 µM)	4 µg/mL (≈ 9 µM)	1 µg/mL (≈ 2.25 µM)	0.008 µg/mL (≈ 0.018 µM)	1 to 2 µg/mL (≈ 2.25 to 4.5 µM)	4 µg/mL (≈ 9 µM)	0.12 µg/mL (≈ 0.27 µM)	0.03 µg/mL (≈ 0.0675 µM)	0.03 µg/mL (≈ 0.0675 µM)	1 µg/mL (≈ 2.25 µM)	0.12 µg/mL (≈ 0.27 µM)	
CN1COc2c(N3CCC(Nc4ccccn4)C3)c(F)cc3c(=O)c(C(=O)O)cn1c23 (stereo not drawn) [Example 8]	0.25 µg/mL (≈ 0.588 µM)	8 µg/mL (≈ 18.8 µM)	0.06 µg/mL (≈ 0.141 µM)	0.06 µg/mL (≈ 0.141 µM)	32 µg/mL (≈ 75.2 µM)	> 32 µg/mL	0.25 µg/mL (≈ 0.588 µM)	0.25 µg/mL (≈ 0.588 µM)	4 µg/mL (≈ 9.4 µM)	0.06 µg/mL (≈ 0.141 µM)	0.12 µg/mL (≈ 0.282 µM)	0.5 µg/mL (≈ 1.18 µM)	> 1 µg/mL	< 0.03 µg/mL	
CN1COc2c(N3CC[C@@H](NC(=O)C(F)(F)F)C3)c(F)cc3c(=O)c(C(=O)O)cn1c23 [Example 29, 8-Fluoro-3-methyl-6-oxo-9-[(R)-3-(2,2,2-trifluoro-acetylamino)-pyrrolidin-1-yl]-2,3-dihydro-6H-1-oxa-3,3a-diaza-phenalene-5-carboxylic acid]	0.5 µg/mL (≈ 1.13 µM)	0.25 µg/mL (≈ 0.563 µM)	1 µg/mL (≈ 2.25 µM)	0.5 µg/mL (≈ 1.13 µM)	8 µg/mL (≈ 18 µM)	4 µg/mL (≈ 9 µM)	0.03 µg/mL (≈ 0.0675 µM)	1 to 2 µg/mL (≈ 2.25 to 4.5 µM)	8 µg/mL (≈ 18 µM)	0.12 µg/mL (≈ 0.27 µM)	0.06 µg/mL (≈ 0.135 µM)	0.06 µg/mL (≈ 0.135 µM)	> 1 µg/mL	0.25 µg/mL (≈ 0.563 µM)	
CN1COc2c(N3CCC(n4ccnn4)C3)c(F)cc3c(=O)c(C(=O)O)cn1c23 (stereo not drawn) (hydrate or solvate)															264 °C (dec.)
CO/N=C1\CCN(c2c(F)cc3c(=O)c(C(=O)O)cn4c3c2OCN4C)C1 (hydrate or solvate)															241 to 243 °C
CN1COc2c(N3CC(N)C(C)(C)C3)c(F)cc3c(=O)c(C(=O)O)cn1c23 (racemic) [Example 33, 9-((R,S)-4-Amino-3,3-dimethyl-pyrrolidin-1-yl)-8-fluoro-3-methyl-6-oxo-2,3-dihydro-6H-1-oxa-3,3a-diaza-phenalene-5-carboxylic acid]	0.12 µg/mL (≈ 0.319 µM)	0.5 µg/mL (≈ 1.33 µM)	0.25 µg/mL (≈ 0.664 µM)	0.5 µg/mL (≈ 1.33 µM)	8 µg/mL (≈ 21.3 µM)	8 µg/mL (≈ 21.3 µM)	0.06 µg/mL (≈ 0.159 µM)		2 µg/mL (≈ 5.31 µM)	< 0.03 µg/mL	0.03 µg/mL (≈ 0.0797 µM)	0.06 µg/mL (≈ 0.159 µM)	0.5 µg/mL (≈ 1.33 µM)	0.06 µg/mL (≈ 0.159 µM)	
CN1COc2c(N3CC[C@@H](Nc4nccs4)C3)c(F)cc3c(=O)c(C(=O)O)cn1c23 (hydrate or solvate) [Example 19, 8-Fluoro-3-methyl-6-oxo-9-[(R)-3-(thiazol-2-ylamino)-pyrrolidin-1-yl]-2,3-dihydro-6H-1-oxa-3,3a-diaza-phenalene-5-carboxylic acid]															245 to 250 °C
CN1n2cc(C(=O)O)c(=O)c3cc(F)c(N4CC[C@H](NC(=O)C(F)(F)F)C4)c(c32)OC1(C)C (hydrate or solvate) [51]															217 to 219 °C
CN1COc2c(N3CCC(CNC(=O)c4ccco4)C3)c(F)cc3c(=O)c(C(=O)O)cn1c23 (stereo not drawn) (hydrate or solvate)															278 to 280 °C
CN1COc2c(N3C[C@H](N)C(C)(C)C3)c(F)cc3c(=O)c(C(=O)O)cn1c23 (hydrate or solvate) [Example 35, 9-((R)-4-Amino-3,3-dimethyl-pyrrolidin-1-yl)-8-fluoro-3-methyl-6-oxo-2,3-dihydro-6H-1-oxa-3,3a-diaza-phenalene-5-carboxylic acid]															222 °C (dec.)
CN1COc2c(N3C[C@H](Nc4nccs4)C(C)(C)C3)c(F)cc3c(=O)c(C(=O)O)cn1c23 (hydrate or solvate)															271 to 273 °C
CN1COc2c(N3CCC(NS(C)(=O)=O)C3)c(F)cc3c(=O)c(C(=O)O)cn1c23 (stereo not drawn) (hydrate or solvate)															261 °C (dec.)
CN1COc2c(N3CC[C@@H](NC(=O)C(F)(F)F)C3)c(F)cc3c(=O)c(C(=O)O)cn1c23 (hydrate or solvate) [Example 29, 8-Fluoro-3-methyl-6-oxo-9-[(R)-3-(2,2,2-trifluoro-acetylamino)-pyrrolidin-1-yl]-2,3-dihydro-6H-1-oxa-3,3a-diaza-phenalene-5-carboxylic acid]															273 to 275 °C
CN1COc2c(N3CCC(Nc4cnccn4)C3)c(F)cc3c(=O)c(C(=O)O)cn1c23 (stereo not drawn) (hydrate or solvate) [Example 7]															269 °C (dec.)
CN1COc2c(N3CC[C@H](NC(=O)C(F)(F)F)C3)ccc3c(=O)c(C(=O)O)cn1c23 (hydrate or solvate)															310 °C (dec.)
